Earlier results on two compounds are cited in US11491120B2, “Pharmacological prophylactics against stress-induced affective disorders in females” (The Trustees of Columbia University in the City of New York, priority 2017, dated 2022).

Each structure is given as a SMILES string.

For series [1] the following is noted: following ketamine infusion; cited from earlier work.
Series [2] deals with NMDAR. As to conditions: cited from earlier work.

For the compound `N[C@@]1(c2ccccc2Cl)CCC[C@@H](O)C1=O` [(2R,6R;2S,6S)-HNK, (2R,6R;2S,6S)-hydroxynorketamine], the “Share of the original ketamine dose found as metabolite in the brain” value in series [1] was 15%.
In the case of `CN[C@]1(c2ccccc2Cl)CCCCC1=O` [(S)-ketamine], in series [2], the “Antagonism of the NMDAR, relative strength” value is listed as “four-fold stronger antagonist”.
